Where two headings read alike, the source gives them in different places.
Experiments:
Assay type in all cases: cell-based, human
MDA-MB-435 = test: NCI 60 five dose assay, Melanoma
SF-539 = test: NCI 60 five dose assay, CNS cancer
T-47D = test: NCI 60 five dose assay, Breast cancer
A498 = test: NCI 60 five dose assay, Renal cancer
SW-620 = test: NCI 60 five dose assay, Colon cancer
NCI 60 cell panel = test: NCI 60 five dose assay, subpanel and full panel means
[1] = Homo sapiens, read-out: LC50 (the source's name)

In the case of CC(=NNc1ccc(S(N)(=O)=O)cc1)c1ccc(NN=C2C(=O)NN=C2Nc2ccccc2)cc1 [Compound 4, 4-(2-(1-(4-(2-(5-oxo-3-(phenylamino)-1,5-dihydro-4H-pyrazol-4-ylidene)hydrazinyl)phenyl)ethylidene)hydrazinyl)benzene sulfonamide], the GI50 (MDA-MB-435; Homo sapiens) is reported as 2.07 µM, the CC50 (MDA-MB-435; [1]) is reported as 17.8 µM and the “Percent Growth” value (MDA-MB-435; Log10 Concentration -4.0 Molar) is reported as -83%. The “Percent Growth” value (MDA-MB-435; Log10 Concentration -5.0 Molar) was -39%, the “Percent Growth” value (MDA-MB-435; Log10 Concentration -6.0 Molar) was 91% and the “Percent Growth” value (MDA-MB-435; Log10 Concentration -7.0 Molar) was 98%. The “Percent Growth” value (MDA-MB-435; Log10 Concentration -8.0 Molar) was 90%, the GI50 (SF-539; Homo sapiens) was 1.58 µM and the CC50 (SF-539; [1]) was 8.56 µM. The “Percent Growth” value (SF-539; Log10 Concentration -4.0 Molar) was -100%, the “Percent Growth” value (SF-539; Log10 Concentration -5.0 Molar) was -59% and the “Percent Growth” value (SF-539; Log10 Concentration -6.0 Molar) was 77%. The “Percent Growth” value (SF-539; Log10 Concentration -7.0 Molar) was 94%, the “Percent Growth” value (SF-539; Log10 Concentration -8.0 Molar) was 89% and the GI50 (T-47D; Homo sapiens, T47D) was 2.22 µM. The CC50 (T-47D; Homo sapiens, T47D, read-out: LC50 (the source's name)) was 23.9 µM, the “Percent Growth” value (T-47D; Log10 Concentration -4.0 Molar) was -88% and the “Percent Growth” value (T-47D; Log10 Concentration -5.0 Molar) was -27%. The “Percent Growth” value (T-47D; Log10 Concentration -6.0 Molar) was 91%, the “Percent Growth” value (T-47D; Log10 Concentration -7.0 Molar) was 98% and the “Percent Growth” value (T-47D; Log10 Concentration -8.0 Molar) was 90%. The GI50 (A498; Homo sapiens) was 11.4 µM, the CC50 (A498; [1]) was 94.7 µM and the “Percent Growth” value (A498; Log10 Concentration -4.0 Molar) was -53%. The “Percent Growth” value (A498; Log10 Concentration -5.0 Molar) was 56%, the “Percent Growth” value (A498; Log10 Concentration -6.0 Molar) was 87% and the “Percent Growth” value (A498; Log10 Concentration -7.0 Molar) was 87%. The “Percent Growth” value (A498; Log10 Concentration -8.0 Molar) was 77%, the GI50 (SW-620; Homo sapiens) was 3.18 µM and the CC50 (SW-620; [1]) was 58.8 µM. The “Percent Growth” value (SW-620; Log10 Concentration -4.0 Molar) was -67%, the “Percent Growth” value (SW-620; Log10 Concentration -5.0 Molar) was 7% and the “Percent Growth” value (SW-620; Log10 Concentration -6.0 Molar) was 93%. For the same molecule, the “Percent Growth” value (SW-620; Log10 Concentration -7.0 Molar) was 102%, the “Percent Growth” value (SW-620; Log10 Concentration -8.0 Molar) was 102% and the GI50 (NCI 60 cell panel; Colon cancer subpanel, read-out: MG-MID for GI50) was 3.33 µM. The GI50 (NCI 60 cell panel; Homo sapiens, 60 cell, Breast cancer subpanel, read-out: MG-MID for GI50) was 2.36 µM, the GI50 (NCI 60 cell panel; Homo sapiens, 60 cell, CNS cancer subpanel, read-out: MG-MID for GI50) was 2.39 µM and the GI50 (NCI 60 cell panel; Homo sapiens, 60 cell, Colon cancer subpanel, read-out: MG-MID for GI50) was 3.33 µM. For the same molecule, the GI50 (NCI 60 cell panel; Homo sapiens, 60 cell, Leukemia subpanel, read-out: MG-MID for GI50) was 2.42 µM, the GI50 (NCI 60 cell panel; Homo sapiens, 60 cell, Melanoma subpanel, read-out: MG-MID for GI50) was 2.47 µM and the GI50 (NCI 60 cell panel; Homo sapiens, 60 cell, Non-small cell lung cancer subpanel, read-out: MG-MID for GI50) was 4.79 µM. It also gave a GI50 (NCI 60 cell panel; Homo sapiens, 60 cell, Ovarian cancer subpanel, read-out: MG-MID for GI50) of 4.19 µM, a GI50 (NCI 60 cell panel; Homo sapiens, 60 cell, Prostate cancer subpanel, read-out: MG-MID for GI50) of 3.13 µM and a GI50 (NCI 60 cell panel; Homo sapiens, 60 cell, Renal cancer subpanel, read-out: MG-MID for GI50) of 9.18 µM. The GI50 (NCI 60 cell panel; Homo sapiens, 60 cell, against almost the whole panel of cancer cell lines, read-out: GI50 range) was 1.1 to 5.9 µM, the GI50 (NCI 60 cell panel; Homo sapiens, 60 cell, average over all cell lines, read-out: Full panel MG-MID (GI50)) was 3.81 µM and the GI50 (NCI 60 cell panel; Homo sapiens, 60 cell, range over the nine subpanels, read-out: subpanel GI50 (MG-MID) range) was 2.36 to 9.17 µM. For the same molecule, the GI50 (NCI 60 cell panel; Melanoma subpanel, read-out: MG-MID for GI50) was 2.48 µM, the GI50 (NCI 60 cell panel; Prostate cancer subpanel, read-out: MG-MID for GI50) was 3.14 µM and the Selectivity index (NCI 60 cell panel; full panel MG-MID / Breast cancer subpanel MG-MID) was 1.614. For the same molecule, the Selectivity index (NCI 60 cell panel; full panel MG-MID / CNS cancer subpanel MG-MID) was 1.595, the Selectivity index (NCI 60 cell panel; full panel MG-MID / Colon cancer subpanel MG-MID) was 1.143 and the Selectivity index (NCI 60 cell panel; full panel MG-MID / Leukemia subpanel MG-MID) was 1.574.

From publication PMC11520566, “Discovery of pyrazole-based analogs as CDK2 inhibitors with apoptotic-inducing activity: design, synthesis and molecular dynamics study” (RSC Advances, 2024)
